In patent US20230144436A1, “MUSCLE TARGETING COMPLEXES AND USES THEREOF FOR TREATING MYOTONIC DYSTROPHY” (Dyne Therapeutics, Inc., priority 2020, published 2023):

System: DMPK
Assay: DMPK knockdown by transfected antisense oligonucleotides in DM1 C15 myotubes at 0.5 nM and 50 nM
Type: cell-based
Conditions: 72 hours, qPCR; for Percent DMPK Reduction: relative to vehicle control; for Normalized DMPK Remaining: relative to vehicle control = 1.00
Method: Two hundred and thirty-six oligonucleotides for targeting DMPK were generated using in silico analysis. Each individual oligonucleotide was evaluated for their ability to target DMPK in cellulo at two doses—0.5 nM (low dose) and 50 nM (high dose).
Briefly, DM1 C15 immortalized myoblasts were cultured in T-75 flasks until near confluency (˜80% confluent). Myoblasts were then disrupted with trypsin and seeded into 96-well microplates at a density of 50,000 cells/well. Cells were allowed to recover overnight before the growth media was washed out and replaced with a no-serum media to induce differentiation into myotubes. Differentiation proceeded for seven days prior to treatment with DMPK-targeting oligonucleotides.
On day seven following induction of differentiation, DM1 C15 myotubes were transfected with an individual oligonucleotide using 0.3 μL of Lipofectamine MessengerMax per well. All oligonucleotides were tested at both 0.5 nM and 50 nM final concentrations in biological triplicates. After treatment with oligonucleotides, cells were incubated for 72 hours prior to being harvested for total RNA. cDNA was synthesized from the total RNA extracts and qPCR was performed to determine expression levels of DMPK in technical quadruplicate. All qPCR data were analyzed using a traditional […] method and were normalized to a plate-based negative control that comprised cells treated with vehicle control (0.3 μL/well Lipofectamine MessengerMax without any oligonucleotide). Results from these experiments are shown in Table 10. ‘Normalized DMPK Remaining’ for each antisense oligonucleotide in Table 10 refers to the expression level of DMPK in cell treated with said antisense oligonucleotide relative to the negative control that comprised cells treated with vehicle control (wherein the expression level of the negative control has been normalized to equal 1.00)

## 311 (CUCAGCCUCUGCCGCAGGGA; chemistry not given here) [compound 311]
0.5 nM oligonucleotide
  Percent DMPK Reduction: 17.86%
  Normalized DMPK Remaining: 0.82
50 nM oligonucleotide
  Percent DMPK Reduction: 79.58%
  Normalized DMPK Remaining: 0.20

## 312 (GUCUCAGUGCAUCCAAAACG; chemistry not given here) [compound 312]
0.5 nM oligonucleotide
  Percent DMPK Reduction: 18.85%
  Normalized DMPK Remaining: 0.81
50 nM oligonucleotide
  Percent DMPK Reduction: 46.13%
  Normalized DMPK Remaining: 0.54

## 314 (UCAGCAGUGUCAGCAGGUCC; chemistry not given here) [compound 314]
0.5 nM oligonucleotide
  Percent DMPK Reduction: 33.46%
  Normalized DMPK Remaining: 0.67
50 nM oligonucleotide
  Percent DMPK Reduction: 61.11%
  Normalized DMPK Remaining: 0.39

## 315 (GCUCCUGGGCGGCGCCAGAC; chemistry not given here) [compound 315]
0.5 nM oligonucleotide
  Percent DMPK Reduction: 8.52%
  Normalized DMPK Remaining: 0.91
50 nM oligonucleotide
  Percent DMPK Reduction: 78.79%
  Normalized DMPK Remaining: 0.21

## 317 (AUCCGCUCCUGCAACUGCCG; chemistry not given here) [compound 317]
0.5 nM oligonucleotide
  Percent DMPK Reduction: 12.80%
  Normalized DMPK Remaining: 0.87
50 nM oligonucleotide
  Percent DMPK Reduction: 40.06%
  Normalized DMPK Remaining: 0.60

## 318 (AGGAGCAGGGAAAGCGCCUC; chemistry not given here) [compound 318]
0.5 nM oligonucleotide
  Percent DMPK Reduction: 33.24%
  Normalized DMPK Remaining: 0.67
50 nM oligonucleotide
  Percent DMPK Reduction: 62.37%
  Normalized DMPK Remaining: 0.38

## 319 (ACACCUGGCCCGUCUGCUUC; chemistry not given here) [compound 319]
0.5 nM oligonucleotide
  Percent DMPK Reduction: 33.00%
  Normalized DMPK Remaining: 0.67
50 nM oligonucleotide
  Percent DMPK Reduction: 55.40%
  Normalized DMPK Remaining: 0.45

## 321 (GCUCCCUCUGCCUGCAGCAA; chemistry not given here) [compound 321]
0.5 nM oligonucleotide
  Percent DMPK Reduction: 26.41%
  Normalized DMPK Remaining: 0.74
50 nM oligonucleotide
  Percent DMPK Reduction: 70.15%
  Normalized DMPK Remaining: 0.30

## 322 (GCUCAGGCUCUGCCGGGUGA; chemistry not given here) [compound 322]
0.5 nM oligonucleotide
  Percent DMPK Reduction: 25.69%
  Normalized DMPK Remaining: 0.74
50 nM oligonucleotide
  Percent DMPK Reduction: 60.71%
  Normalized DMPK Remaining: 0.39

## 323 (UUGAUGUCCCUGUGCACGUA; chemistry not given here) [compound 323]
0.5 nM oligonucleotide
  Percent DMPK Reduction: 25.67%
  Normalized DMPK Remaining: 0.74
50 nM oligonucleotide
  Percent DMPK Reduction: 55.13%
  Normalized DMPK Remaining: 0.45

## 324 (GCCUCAGCCUCUGCCGCAGG; chemistry not given here) [compound 324]
0.5 nM oligonucleotide
  Percent DMPK Reduction: 16.37%
  Normalized DMPK Remaining: 0.84
50 nM oligonucleotide
  Percent DMPK Reduction: 46.42%
  Normalized DMPK Remaining: 0.54

## 325 (GGUAGUUCUCAUCCUGGAAG; chemistry not given here) [compound 325]
0.5 nM oligonucleotide
  Percent DMPK Reduction: 25.48%
  Normalized DMPK Remaining: 0.75
50 nM oligonucleotide
  Percent DMPK Reduction: 56.15%
  Normalized DMPK Remaining: 0.44

## 326 (CAGCGCCCACCAGUCACACU; chemistry not given here) [compound 326]
0.5 nM oligonucleotide
  Percent DMPK Reduction: 37.28%
  Normalized DMPK Remaining: 0.63
50 nM oligonucleotide
  Percent DMPK Reduction: 64.93%
  Normalized DMPK Remaining: 0.35

## 327 (CCCAAACUUGCUCAGCAGUG; chemistry not given here) [compound 327]
0.5 nM oligonucleotide
  Percent DMPK Reduction: 37.02%
  Normalized DMPK Remaining: 0.63
50 nM oligonucleotide
  Percent DMPK Reduction: 61.78%
  Normalized DMPK Remaining: 0.38

## 328 (CUUGCCAUAGGUCUCCGCCG; chemistry not given here) [compound 328]
0.5 nM oligonucleotide
  Percent DMPK Reduction: 27.04%
  Normalized DMPK Remaining: 0.73
50 nM oligonucleotide
  Percent DMPK Reduction: 71.05%
  Normalized DMPK Remaining: 0.29

## 329 (UACACCUGGCCCGUCUGCUU; chemistry not given here) [compound 329]
0.5 nM oligonucleotide
  Percent DMPK Reduction: 31.10%
  Normalized DMPK Remaining: 0.69
50 nM oligonucleotide
  Percent DMPK Reduction: 57.43%
  Normalized DMPK Remaining: 0.43

## 330 (CCAGCGCCCACCAGUCACAC; chemistry not given here) [compound 330]
0.5 nM oligonucleotide
  Percent DMPK Reduction: 36.17%
  Normalized DMPK Remaining: 0.64
50 nM oligonucleotide
  Percent DMPK Reduction: 70.96%
  Normalized DMPK Remaining: 0.29

## 331 (GGCCUCAGCCUGGCCGAAAG; chemistry not given here) [compound 331]
0.5 nM oligonucleotide
  Percent DMPK Reduction: 14.49%
  Normalized DMPK Remaining: 0.86
50 nM oligonucleotide
  Percent DMPK Reduction: 64.80%
  Normalized DMPK Remaining: 0.35

## 332 (AAUCUCCGCCAGGUAGAAGC; chemistry not given here) [compound 332]
0.5 nM oligonucleotide
  Percent DMPK Reduction: 35.85%
  Normalized DMPK Remaining: 0.64
50 nM oligonucleotide
  Percent DMPK Reduction: 65.27%
  Normalized DMPK Remaining: 0.35

## 333 (AUGGCAUACACCUGGCCCGU; chemistry not given here) [compound 333]
0.5 nM oligonucleotide
  Percent DMPK Reduction: 14.31%
  Normalized DMPK Remaining: 0.86
50 nM oligonucleotide
  Percent DMPK Reduction: 49.63%
  Normalized DMPK Remaining: 0.50

## 334 (CCAUGACAAUCUCCGCCAGG; chemistry not given here) [compound 334]
0.5 nM oligonucleotide
  Percent DMPK Reduction: 34.53%
  Normalized DMPK Remaining: 0.65
50 nM oligonucleotide
  Percent DMPK Reduction: 76.46%
  Normalized DMPK Remaining: 0.24

## 335 (UCCCCAAACUUGCUCAGCAG; chemistry not given here) [compound 335]
0.5 nM oligonucleotide
  Percent DMPK Reduction: 5.73%
  Normalized DMPK Remaining: 0.94
50 nM oligonucleotide
  Percent DMPK Reduction: 44.67%
  Normalized DMPK Remaining: 0.55

## 336 (GAUGUUGUCGGGUUUGAUGU; chemistry not given here) [compound 336]
0.5 nM oligonucleotide
  Percent DMPK Reduction: 10.06%
  Normalized DMPK Remaining: 0.90
50 nM oligonucleotide
  Percent DMPK Reduction: 42.42%
  Normalized DMPK Remaining: 0.58

## 337 (GUUUGCCCAUCCACGUCAGG; chemistry not given here) [compound 337]
0.5 nM oligonucleotide
  Percent DMPK Reduction: 34.36%
  Normalized DMPK Remaining: 0.66
50 nM oligonucleotide
  Percent DMPK Reduction: 54.49%
  Normalized DMPK Remaining: 0.46

## 338 (CGGACGGCCCGGCUUGCUGC; chemistry not given here) [compound 338]
0.5 nM oligonucleotide
  Percent DMPK Reduction: 5.42%
  Normalized DMPK Remaining: 0.95
50 nM oligonucleotide
  Percent DMPK Reduction: 30.41%
  Normalized DMPK Remaining: 0.70

## 339 (CUCCGCCAGGUAGAAGCGCG; chemistry not given here) [compound 339]
0.5 nM oligonucleotide
  Percent DMPK Reduction: 30.22%
  Normalized DMPK Remaining: 0.70
50 nM oligonucleotide
  Percent DMPK Reduction: 78.14%
  Normalized DMPK Remaining: 0.22

## 340 (GUACAGGUAGUUCUCAUCCU; chemistry not given here) [compound 340]
0.5 nM oligonucleotide
  Percent DMPK Reduction: 31.52%
  Normalized DMPK Remaining: 0.68
50 nM oligonucleotide
  Percent DMPK Reduction: 65.57%
  Normalized DMPK Remaining: 0.34

## 341 (AGGGCGUCUGCCCAUAGAAC; chemistry not given here) [compound 341]
0.5 nM oligonucleotide
  Percent DMPK Reduction: 13.23%
  Normalized DMPK Remaining: 0.87
50 nM oligonucleotide
  Percent DMPK Reduction: 58.98%
  Normalized DMPK Remaining: 0.41

## 342 (UGGCCACAGCGGUCCAGCAG; chemistry not given here) [compound 342]
0.5 nM oligonucleotide
  Percent DMPK Reduction: 29.59%
  Normalized DMPK Remaining: 0.70
50 nM oligonucleotide
  Percent DMPK Reduction: 69.44%
  Normalized DMPK Remaining: 0.31

## 343 (CGUAGUUGACUGGCGAAGUU; chemistry not given here) [compound 343]
0.5 nM oligonucleotide
  Percent DMPK Reduction: 25.26%
  Normalized DMPK Remaining: 0.75
50 nM oligonucleotide
  Percent DMPK Reduction: 61.52%
  Normalized DMPK Remaining: 0.38

## 344 (UCUGCCGCAGGGACAGCCGC; chemistry not given here) [compound 344]
0.5 nM oligonucleotide
  Percent DMPK Reduction: 22.97%
  Normalized DMPK Remaining: 0.77
50 nM oligonucleotide
  Percent DMPK Reduction: 82.10%
  Normalized DMPK Remaining: 0.18

## 345 (AAGCGCCUCCGAUAGGCCAG; chemistry not given here) [compound 345]
0.5 nM oligonucleotide
  Percent DMPK Reduction: 8.91%
  Normalized DMPK Remaining: 0.91
50 nM oligonucleotide
  Percent DMPK Reduction: 43.93%
  Normalized DMPK Remaining: 0.56

## 347 (GCUCAGCAGUGUCAGCAGGU; chemistry not given here) [compound 347]
0.5 nM oligonucleotide
  Percent DMPK Reduction: 29.18%
  Normalized DMPK Remaining: 0.71
50 nM oligonucleotide
  Percent DMPK Reduction: 73.46%
  Normalized DMPK Remaining: 0.27

## 348 (AUGAUCUUCAUGGCAUACAC; chemistry not given here) [compound 348]
0.5 nM oligonucleotide
  Percent DMPK Reduction: 12.76%
  Normalized DMPK Remaining: 0.87
50 nM oligonucleotide
  Percent DMPK Reduction: 39.97%
  Normalized DMPK Remaining: 0.60

## 349 (UUUGCCCAUCCACGUCAGGG; chemistry not given here) [compound 349]
0.5 nM oligonucleotide
  Percent DMPK Reduction: 32.79%
  Normalized DMPK Remaining: 0.67
50 nM oligonucleotide
  Percent DMPK Reduction: 59.36%
  Normalized DMPK Remaining: 0.41

## 350 (ACUUGCUCAGCAGUGUCAGC; chemistry not given here) [compound 350]
0.5 nM oligonucleotide
  Percent DMPK Reduction: 27.84%
  Normalized DMPK Remaining: 0.72
50 nM oligonucleotide
  Percent DMPK Reduction: 60.71%
  Normalized DMPK Remaining: 0.39
